{"source": "paper PMC5671735", "about": "“The Effect of CM082, an Oral Tyrosine Kinase Inhibitor, on Experimental Choroidal Neovascularization in Rats” (Journal of Ophthalmology, 2017)", "key": {"[1]": {"system": "CNV model produced by subretinal injection of Matrigel", "settings": "no reference given; cited from earlier work"}, "[2]": {"system": "laser-induced CNV rat model", "experiment": "CNV histology (HE staining)", "type": "in vivo, Brown Norway (BN) rats", "description": "(§1) Laser photocoagulation-induced CNV was established as previously described. Preoperative preparation included general anesthesia, which was induced with an intraperitoneal injection of 1% pentobarbital sodium (40 mg/kg; Sigma-Aldrich, St. Louis, MO, USA). The rats' pupils were dilated using 0.5% tropicamide and 0.5% phenylephrine (Mydrin-P, Santen Pharmaceutical Co., Osaka, Japan). Surface anesthesia was induced with 0.5% Alcaine (Alcon (China) Ophthalmic Product Co., Beijing, China). Bruch's membrane of the right eye was injured using the following laser parameters: 532 nm wavelength, 360 mW intensity, 0.1 s duration, and 50 μm spot size. Eight to ten laser spots were applied to the major retinal vessels at approximately the same distance to the optic disc. A laser-induced cavitation bubble or slight hemorrhage indicated a rupture in Bruch's membrane. Fundus photography was taken immediately after laser photocoagulation to check for fundus hemorrhage.\nThe rats were euthanized after the FFA examination on day 14 or 21 after laser injury, and a histological examination was performed on 4 rats per group at each time point. The animals were enucleated, and the eyes were fixed in paraformaldehyde for 24 h (the eyelashes were also removed). After fixation, the eyes were embedded in paraffin and serially sectioned at 5 μm. […]"}, "[3]": {"system": "laser-induced CNV rat model", "experiment": "CNV area in RPE-choroid-sclera flat mounts after FITC-dextran perfusion", "type": "in vivo, Brown Norway (BN) rats", "description": "as §1\nTo assess the inhibitory effects of CM082 on CNV development, the photocoagulated rats were randomly divided into 2 groups: (1) a CM082-treated group (n = 9) and (2) a vehicle-treated group (n = 9). CM082 (30 mg/kg/d or 5 ml/kg/d) or vehicle (5 ml/kg/d) was administered beginning on the 7th day after laser injury. On the 7th, 14th, or 21st day, 3 rats from each group were anesthetized, and the left ventricle of the heart was perfused with 2 ml of PBS containing 50 mg of fluorescein isothiocyanate- (FITC-) dextran (2 × 10^6 average molecular weight; Sigma-Aldrich). The enucleated eyes were fixed in 4% paraformaldehyde for 1 h. […] The CNV area was measured by ImageJ software (National Institutes of Health, Bethesda, MD, USA).\nTo further confirm the reverse effect of CM082 at a dose of 30 mg/kg/d on the CNV area, we prepared RPE-choroid-sclera by perfusion with FITC-dextran. […] In addition to comparing the CM082-treated group to the vehicle-treated group, we analyzed the CNV area in the CM082-treated group at different time points."}, "[4]": {"system": "phosphorylated VEGFR-2 (p-VEGFR-2)", "experiment": "Immunohistochemistry of phosphorylated VEGFR-2 in CNV eyes", "type": "in vivo, Brown Norway (BN) rats", "settings": "CM082 30 mg/kg oral, 14 and 21 days after laser injury, vs vehicle", "description": "The rats were euthanized after the FFA examination on day 14 or 21 after laser injury, and a histological examination was performed on 4 rats per group at each time point. The animals were enucleated, and the eyes were fixed in paraformaldehyde for 24 h (the eyelashes were also removed). After fixation, the eyes were embedded in paraffin and serially sectioned at 5 μm. Routine hematoxylin-eosin (HE) staining was performed on selected slides, and the serial sections were examined using a light microscope. Immunohistochemical staining was performed on the histological sections from the CM082-treated and vehicle-treated groups 14 and 21 days after laser administration. Routine immunolocalization procedures were used to dewax and rehydrate the slides. The slides were incubated with 3% hydrogen peroxidase for 25 min and washed in phosphate-buffered saline (PBS) for 5 min. The slides were then blocked in goat serum for 15 min. Next, the sections were incubated with a phosphorylated anti-VEGFR-2 antibody (Nanjing Bioworld Biotech Co., Jiangsu, China) overnight at 4°C, followed by incubation with Goat Anti-Rabbit/Rat IgG antibody (Dako Denmark A/S, Denmark) for 30 min. The sections were subsequently incubated with horseradish peroxidase-conjugated streptavidin (Thermo Fisher Scientific China, Shanghai, China) for 30 min and then counterstained with hematoxylin for 2 min. […]"}, "[5]": {"experiment": "LC-MS/MS concentrations of CM082 and its metabolites in plasma and ocular tissues after oral CM082", "type": "in vivo, Brown Norway (BN) rats", "description": "(§2) To assess the CM082 distribution and the inhibitory effects of CM082 on CNV development, the 70 rats were randomly divided into 2 groups: 10 rats for evaluating the CNV rat model and to detect the distribution of CM082 and its metabolites and 60 rats for assessing the effects of CM082 on the experimental CNV. CM082 was administered orally at dose of 10 mg/kg/d or 30 mg/kg/d, while the vehicle ([…]) was used as a negative control.\nLiquid chromatography-tandem mass spectrometry (LC-MS/MS) was employed to detect the concentrations of CM082 and its metabolites (X-297 (C22H24FN5O3) and X-471 (C23H28FN5O4)) in the plasma and ocular tissues. An API-4000 triple-quadrupole mass spectrometer (AB Sciex, Framingham, MA, USA) coupled with a Shimadzu liquid chromatography system (Shimadzu Cooperation, Kyoto, Japan) was used for the analysis. CM082, its metabolites, and tolbutamide were dissolved in DMSO to generate 1.0 mg/ml stock solutions stored at 4°C. A total of 200 μl of the tolbutamide stock solution was dissolved in acetonitrile to produce internal-standard working solutions. The plasma and ocular tissue samples were analyzed along with the standard and quality-control samples. The data were analyzed with Analyst 1.6.1 (AB Sciex, Framingham, MA, USA).\nTen BN rats were photocoagulated in the oculus dexter (OD) to build the CNV rat model. Histological examination was performed at day 21, while FFA was conducted at days 14 and 21 to ensure that the CNV model was established successfully and to provide evidence that neovascularization was induced (Figures 1(a), 1(b), and 1(c)). After modeling CNV successfully, to investigate whether CM082 and its metabolites (X-297 and X-471) can reach the retina effectively, the rest of the nine rats were orally treated with CM082 at 10 mg/kg/d for 9 days, starting from day 22. […] Two days after FFA, the rats were sacrificed, and we determined the concentrations of CM082 in the plasma (ng/ml) and the ocular tissues (ng/g) 2 h after CM082 treatment. The concentrations of CM082 in the plasma, the oculus sinister (OS), and the OD were 196.87 ± 24.38 ng/ml, 172.74 ± 20.83 ng/g, and 172.97 ± 18.33 ng/g, respectively. The corresponding concentrations of X-297 were 34.42 ± 3.86 ng/ml, 31.28 ± 4.00 ng/g, and 31.11 ± 3.56 ng/g, while those of X-471 were 32.04 ± 4.57 ng/ml, 16.68 ± 2.18 ng/g, and 15.82 ± 1.85 ng/g."}, "[6]": {"system": "laser-induced CNV rat model", "experiment": "Fundus fluorescence angiography (FFA) of fluorescein leakage in laser-induced CNV", "type": "in vivo, Brown Norway (BN) rats", "description": "as §1, §2\nThe preoperative preparations were the same as those used to establish the CNV model. Approximately 0.2 ml of 10% sodium fluorescein (Alcon Japan, Tokyo, Japan) was injected intraperitoneally, and the leakage of fluorescein from the laser lesions was monitored dynamically for up to 15 min. The images were obtained using confocal scanning laser ophthalmoscopy (Spectralis, Heidelberg Engineering Inc., Heidelberg, Germany) and analyzed using ImageJ software (National Institutes of Health, Bethesda, MD, USA). The signal intensities (brightness of the CNV lesions) defined the degree of leakage. As a reference, the intensity of the capillaries in the normal regions was defined as 0, whereas the intensity at the major branch of the retinal vein was defined as 1.\nTo determine whether CM082 inhibited CNV progression, 60 BN rats were divided into 4 groups and randomized by weight, with 10 rats receiving CM082 at 10 mg/kg/d, 10 receiving CM082 at 30 mg/kg/d, 20 receiving vehicle treatment, and 20 undergoing the RPE-choroid-sclera preparation. […] The CNV analysis was performed on day 14 or 21 after laser photocoagulation using FFA, histological examinations, and immunohistochemistry."}, "[7]": {"type": "in vivo", "settings": "oral CM082 10 or 30 mg/kg/d", "description": "[…] BN rats were used in this study."}, "[8]": {"system": "oxidative-induced retinopathy", "settings": "CM082-treated group compared to control group; no reference given; cited from earlier work"}}, "note": "Values joined by “and” are separate entries in the source; they are usually repeats but may differ in a detail not shown here. Equal entries are not always repeated.", "data": [{"smiles": "Cc1[nH]c(/C=C2\\C(=O)Nc3ccc(F)cc32)c(C)c1C(=O)N[C@H]1CCN(C(=O)N(C)C)C1", "note": "[CM082]", "values": [{"measurement": "areas of CNV lesions", "setting": "[1]", "value": "reduced the areas of CNV lesions"}, {"measurement": "CNV lesion size by histology (HE)", "setting": "[2]; CM082 10 mg/kg/d oral, day 21, vs vehicle", "value": "smaller"}, {"measurement": "edema, depigmentation, and CNV areas by histology (HE)", "setting": "[2]; CM082 30 mg/kg/d oral, 14 and 21 days after laser photocoagulation, vs vehicle", "value": "significantly decreased"}, {"measurement": "area of the CNV lesions", "setting": "[3]; 30 mg/kg/d group, 7 days after laser photocoagulation, before dosing (baseline), vehicle 4.84 ± 0.72", "value": "4.45 ± 0.90", "unit": "μm^2 × 10^4"}, {"measurement": "area of the CNV lesions", "setting": "[3]; CM082 30 mg/kg/d oral from day 7, 14 days after laser injury, vehicle 9.60 ± 1.68", "value": "1.48 ± 0.24", "unit": "μm^2 × 10^4"}, {"measurement": "area of the CNV lesions", "setting": "[3]; CM082 30 mg/kg/d oral from day 7, 21 days after laser injury, vehicle 19.61", "value": "1.03 ± 0.27", "unit": "μm^2 × 10^4"}, {"measurement": "p-VEGFR-2 immunostaining", "setting": "[4]", "value": "reduced the aggregation of p-VEGFR-2 in the RPE and OPL"}, {"measurement": "distribution within the ocular tissues", "setting": "[5]; 2 h after CM082 administration, oral 10 mg/kg/d", "value": "highest in the retina-sclera"}, {"measurement": "concentration in the oculus sinister (OS)", "setting": "[5]; CM082 oral 10 mg/kg/d for 9 days, 2 h after CM082 treatment, n = 9, eye without laser injury", "value": "172.74 ± 20.83", "unit": "ng/g"}, {"measurement": "concentration in the oculus dexter (OD)", "setting": "[5]; CM082 oral 10 mg/kg/d for 9 days, 2 h after CM082 treatment, n = 9, photocoagulated eye", "value": "172.97 ± 18.33", "unit": "ng/g"}, {"measurement": "concentration in the plasma", "setting": "[5]; CM082 oral 10 mg/kg/d for 9 days, 2 h after CM082 treatment, n = 9, 10 mg/kg/day", "value": "196.87 ± 73.13 ng/mL and 196.87 ± 24.38 ng/mL"}, {"measurement": "total concentration in the eyes", "setting": "[5]; oral CM082, abstract value", "value": "172.86 ± 57.11", "unit": "ng/g"}, {"measurement": "FFA leakage signal intensity", "setting": "[6]; 10 mg/kg/d group, day 7 after laser injury, before CM082 administration (baseline), scale 0 = capillaries, 1 = retinal vein, vehicle 0.81 ± 0.03", "value": "0.78 ± 0.04"}, {"measurement": "FFA leakage signal intensity", "setting": "[6]; 30 mg/kg/d group, day 7 after photocoagulation, before dosing (baseline), vehicle 0.81 ± 0.02, p > 0.05", "value": "0.77 ± 0.04"}, {"measurement": "FFA leakage signal intensity", "setting": "[6]; CM082 10 mg/kg/d oral from day 7, day 21 after laser injury (14 days after dosing), vehicle 0.82 ± 0.03, p < 0.01", "value": "0.66 ± 0.05"}, {"measurement": "FFA fluorescein leakage vs days 14 and 21", "setting": "[6]; CM082 10 mg/kg/d oral started day 22 after laser, FFA after 7 days of administration (day 28), p > 0.05", "value": "no significant reduction in fluorescein leakage"}, {"measurement": "FFA leakage signal intensity", "setting": "[6]; CM082 30 mg/kg/d oral from day 7, day 14, vehicle 0.83 ± 0.03, p < 0.001", "value": "0.42 ± 0.03"}, {"measurement": "FFA leakage signal intensity", "setting": "[6]; CM082 30 mg/kg/d oral from day 7, day 21, vehicle 0.86 ± 0.02, p < 0.001", "value": "0.35 ± 0.05"}, {"measurement": "tolerability during treatment", "setting": "[7]", "value": "no behavioral change, death, or body weight loss"}, {"measurement": "inhibition rate", "setting": "[8]", "value": 71.1, "unit": "%"}]}]}
